# Test results taken from the supplement of paper PMC4862054.
# Tested on: MDA-MB-453
# Assay: normalised response (% of control), CellTiter-Glo; higher = more viable cells (100 = DMSO, 0 = benzethonium chloride kill control)
# Conditions: incubation time: 72 h
# Method in brief: (§1)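 Plates were normalised with 0.1 % DMSO as 100 and a positive kill control as 0. Breast cancer cell lines in 20 µl suspension had been seeded into 384-well plates with compound at 5 concentrations in 10-fold steps over a compound-specific 10,000-fold range, incubated 72 h, and read for CellTox Green fluorescence (485/520 nm) followed by CellTiter-Glo luminescence. Each value is the normalised signal at a single concentration.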
row,Compound,normalised response [%]
1,CS(=O)(=O)OCCCCOS(C)(=O)=O [Busulfan] (100 nM),109
2,CN(c1ccccc1CNc1nc(Nc2ccc3c(c2)CC(=O)N3)ncc1C(F)(F)F)S(C)(=O)=O (1 nM),95.4
3,CCS(=O)(=O)c1cccc(-c2cc(C(=O)NC3CCN(C)CC3)c(C)c3[nH]c4ncc(C)cc4c23)c1 [TAK-901] (1 nM),97
4,CC(C)(C)c1cc(NC(=O)Nc2ccc(-c3cn4c(n3)sc3cc(OCCN5CCOCC5)ccc34)cc2)no1 [Quizartinib] (1 nM),104
5,Cc1cc(C(C)Nc2ccccc2)c2nc(N3CCOCC3)cc(=O)n2c1 (stereo unspecified) [TGX-221] (10 nM),98.6
6,C[C@@H]1CCN(C(=O)CC#N)C[C@@H]1N(C)c1ncnc2[nH]ccc12 [Tofacitinib] (0.5 nM),103
7,COc1ncc(-c2ccc3nccc(-c4ccnnc4)c3c2)cc1NS(=O)(=O)c1ccc(F)cc1F (1 nM),98.2
8,COC(=O)C[C@](O)(CCCC(C)(C)O)C(=O)O[C@@H]1C(OC)=C[C@]23CCCN2CCc2cc4c(cc2[C@H]13)OCO4 [Omacetaxine] (10 nM),109
9,Cn1cnc2c(F)c(Nc3ccc(Br)cc3F)c(C(=O)NOCCO)cc21 [MEK-162] (1 nM),103
10,Cn1c(=O)c(F)c(Nc2ccc(I)cc2F)c2c(=O)n(C[C@@H](O)CO)cnc21 [TAK-733] (1 nM),98.7
11,C[C@@H]1C=C2C(=O)O[C@@H]3CC[C@H](C1)[C@]23O [Galiellalactone] (50 nM),108
12,COC1=C2C[C@@H](C)C[C@H](OC)[C@H](O)[C@@H](C)/C=C(\C)[C@H](OC(N)=O)[C@@H](OC)/C=C\C=C(/C)C(=O)NC(=CC1=O)C2=O [Geldanamycin] (10 nM),106
13,Cc1cc(C(C)Nc2ccccc2)c2nc(N3CCOCC3)cc(=O)n2c1 (stereo unspecified) [TGX-221] (1 nM),98.5
14,CS(=O)(=O)CCNCc1ccc(-c2ccc3ncnc(Nc4ccc(OCc5cccc(F)c5)c(Cl)c4)c3c2)o1 [Lapatinib] (0.1 nM),121
15,FC(F)c1nc2ccccc2n1-c1nc(N2CCOCC2)nc(N2CCOCC2)n1 [ZSTK474] (1 nM),106

# Tested on: MCF-10A
# Assay: as above
# Conditions: incubation time: 72 h
# Method in brief: as §1
row,Compound,normalised response [%]
1,CS(=O)(=O)OCCCCOS(C)(=O)=O [Busulfan] (100 nM),108
2,CN(c1ccccc1CNc1nc(Nc2ccc3c(c2)CC(=O)N3)ncc1C(F)(F)F)S(C)(=O)=O (1 nM),96.3
3,CCS(=O)(=O)c1cccc(-c2cc(C(=O)NC3CCN(C)CC3)c(C)c3[nH]c4ncc(C)cc4c23)c1 [TAK-901] (1 nM),113
4,CC(C)(C)c1cc(NC(=O)Nc2ccc(-c3cn4c(n3)sc3cc(OCCN5CCOCC5)ccc34)cc2)no1 [Quizartinib] (1 nM),110
5,Cc1cc(C(C)Nc2ccccc2)c2nc(N3CCOCC3)cc(=O)n2c1 (stereo unspecified) [TGX-221] (10 nM),92.3
6,C[C@@H]1CCN(C(=O)CC#N)C[C@@H]1N(C)c1ncnc2[nH]ccc12 [Tofacitinib] (0.5 nM),111
7,COc1ncc(-c2ccc3nccc(-c4ccnnc4)c3c2)cc1NS(=O)(=O)c1ccc(F)cc1F (1 nM),94.2
8,COC(=O)C[C@](O)(CCCC(C)(C)O)C(=O)O[C@@H]1C(OC)=C[C@]23CCCN2CCc2cc4c(cc2[C@H]13)OCO4 [Omacetaxine] (10 nM),123
9,Cn1cnc2c(F)c(Nc3ccc(Br)cc3F)c(C(=O)NOCCO)cc21 [MEK-162] (1 nM),96.1
10,Cn1c(=O)c(F)c(Nc2ccc(I)cc2F)c2c(=O)n(C[C@@H](O)CO)cnc21 [TAK-733] (1 nM),83
11,C[C@@H]1C=C2C(=O)O[C@@H]3CC[C@H](C1)[C@]23O [Galiellalactone] (50 nM),114
12,COC1=C2C[C@@H](C)C[C@H](OC)[C@H](O)[C@@H](C)/C=C(\C)[C@H](OC(N)=O)[C@@H](OC)/C=C\C=C(/C)C(=O)NC(=CC1=O)C2=O [Geldanamycin] (10 nM),106
13,Cc1cc(C(C)Nc2ccccc2)c2nc(N3CCOCC3)cc(=O)n2c1 (stereo unspecified) [TGX-221] (1 nM),96.5
14,CS(=O)(=O)CCNCc1ccc(-c2ccc3ncnc(Nc4ccc(OCc5cccc(F)c5)c(Cl)c4)c3c2)o1 [Lapatinib] (0.1 nM),98.4
15,FC(F)c1nc2ccccc2n1-c1nc(N2CCOCC2)nc(N2CCOCC2)n1 [ZSTK474] (1 nM),106

# Tested on: MDA-MB-231
# Assay: as above
# Conditions: incubation time: 72 h
# Method in brief: as §1
row,Compound,normalised response [%]
1,CS(=O)(=O)OCCCCOS(C)(=O)=O [Busulfan] (100 nM),101
2,CN(c1ccccc1CNc1nc(Nc2ccc3c(c2)CC(=O)N3)ncc1C(F)(F)F)S(C)(=O)=O (1 nM),95.4
3,CCS(=O)(=O)c1cccc(-c2cc(C(=O)NC3CCN(C)CC3)c(C)c3[nH]c4ncc(C)cc4c23)c1 [TAK-901] (1 nM),101
4,CC(C)(C)c1cc(NC(=O)Nc2ccc(-c3cn4c(n3)sc3cc(OCCN5CCOCC5)ccc34)cc2)no1 [Quizartinib] (1 nM),106
5,Cc1cc(C(C)Nc2ccccc2)c2nc(N3CCOCC3)cc(=O)n2c1 (stereo unspecified) [TGX-221] (10 nM),92.2
6,C[C@@H]1CCN(C(=O)CC#N)C[C@@H]1N(C)c1ncnc2[nH]ccc12 [Tofacitinib] (0.5 nM),104
7,COc1ncc(-c2ccc3nccc(-c4ccnnc4)c3c2)cc1NS(=O)(=O)c1ccc(F)cc1F (1 nM),92.9
8,COC(=O)C[C@](O)(CCCC(C)(C)O)C(=O)O[C@@H]1C(OC)=C[C@]23CCCN2CCc2cc4c(cc2[C@H]13)OCO4 [Omacetaxine] (10 nM),105
9,Cn1cnc2c(F)c(Nc3ccc(Br)cc3F)c(C(=O)NOCCO)cc21 [MEK-162] (1 nM),99
10,Cn1c(=O)c(F)c(Nc2ccc(I)cc2F)c2c(=O)n(C[C@@H](O)CO)cnc21 [TAK-733] (1 nM),108
11,C[C@@H]1C=C2C(=O)O[C@@H]3CC[C@H](C1)[C@]23O [Galiellalactone] (50 nM),104
12,COC1=C2C[C@@H](C)C[C@H](OC)[C@H](O)[C@@H](C)/C=C(\C)[C@H](OC(N)=O)[C@@H](OC)/C=C\C=C(/C)C(=O)NC(=CC1=O)C2=O [Geldanamycin] (10 nM),105
13,Cc1cc(C(C)Nc2ccccc2)c2nc(N3CCOCC3)cc(=O)n2c1 (stereo unspecified) [TGX-221] (1 nM),92.7
14,CS(=O)(=O)CCNCc1ccc(-c2ccc3ncnc(Nc4ccc(OCc5cccc(F)c5)c(Cl)c4)c3c2)o1 [Lapatinib] (0.1 nM),100
15,FC(F)c1nc2ccccc2n1-c1nc(N2CCOCC2)nc(N2CCOCC2)n1 [ZSTK474] (1 nM),99.7

# Tested on: BT-474
# Assay: as above
# Conditions: incubation time: 72 h
# Method in brief: as §1
row,Compound,normalised response [%]
1,CS(=O)(=O)OCCCCOS(C)(=O)=O [Busulfan] (100 nM),101
2,CN(c1ccccc1CNc1nc(Nc2ccc3c(c2)CC(=O)N3)ncc1C(F)(F)F)S(C)(=O)=O (1 nM),95.5
3,CCS(=O)(=O)c1cccc(-c2cc(C(=O)NC3CCN(C)CC3)c(C)c3[nH]c4ncc(C)cc4c23)c1 [TAK-901] (1 nM),98.5
4,CC(C)(C)c1cc(NC(=O)Nc2ccc(-c3cn4c(n3)sc3cc(OCCN5CCOCC5)ccc34)cc2)no1 [Quizartinib] (1 nM),118
5,Cc1cc(C(C)Nc2ccccc2)c2nc(N3CCOCC3)cc(=O)n2c1 (stereo unspecified) [TGX-221] (10 nM),92.5
6,C[C@@H]1CCN(C(=O)CC#N)C[C@@H]1N(C)c1ncnc2[nH]ccc12 [Tofacitinib] (0.5 nM),106
7,COc1ncc(-c2ccc3nccc(-c4ccnnc4)c3c2)cc1NS(=O)(=O)c1ccc(F)cc1F (1 nM),91.6
8,COC(=O)C[C@](O)(CCCC(C)(C)O)C(=O)O[C@@H]1C(OC)=C[C@]23CCCN2CCc2cc4c(cc2[C@H]13)OCO4 [Omacetaxine] (10 nM),103
9,Cn1cnc2c(F)c(Nc3ccc(Br)cc3F)c(C(=O)NOCCO)cc21 [MEK-162] (1 nM),106
10,Cn1c(=O)c(F)c(Nc2ccc(I)cc2F)c2c(=O)n(C[C@@H](O)CO)cnc21 [TAK-733] (1 nM),45.1
11,C[C@@H]1C=C2C(=O)O[C@@H]3CC[C@H](C1)[C@]23O [Galiellalactone] (50 nM),104
12,COC1=C2C[C@@H](C)C[C@H](OC)[C@H](O)[C@@H](C)/C=C(\C)[C@H](OC(N)=O)[C@@H](OC)/C=C\C=C(/C)C(=O)NC(=CC1=O)C2=O [Geldanamycin] (10 nM),106
13,Cc1cc(C(C)Nc2ccccc2)c2nc(N3CCOCC3)cc(=O)n2c1 (stereo unspecified) [TGX-221] (1 nM),93.1
14,CS(=O)(=O)CCNCc1ccc(-c2ccc3ncnc(Nc4ccc(OCc5cccc(F)c5)c(Cl)c4)c3c2)o1 [Lapatinib] (0.1 nM),102
15,FC(F)c1nc2ccccc2n1-c1nc(N2CCOCC2)nc(N2CCOCC2)n1 [ZSTK474] (1 nM),98.8

# Tested on: BT-549
# Assay: as above
# Conditions: incubation time: 72 h
# Method in brief: as §1
row,Compound,normalised response [%]
1,CS(=O)(=O)OCCCCOS(C)(=O)=O [Busulfan] (100 nM),97.2
2,CN(c1ccccc1CNc1nc(Nc2ccc3c(c2)CC(=O)N3)ncc1C(F)(F)F)S(C)(=O)=O (1 nM),100
3,CCS(=O)(=O)c1cccc(-c2cc(C(=O)NC3CCN(C)CC3)c(C)c3[nH]c4ncc(C)cc4c23)c1 [TAK-901] (1 nM),101
4,CC(C)(C)c1cc(NC(=O)Nc2ccc(-c3cn4c(n3)sc3cc(OCCN5CCOCC5)ccc34)cc2)no1 [Quizartinib] (1 nM),98.8
5,Cc1cc(C(C)Nc2ccccc2)c2nc(N3CCOCC3)cc(=O)n2c1 (stereo unspecified) [TGX-221] (10 nM),95.2
6,C[C@@H]1CCN(C(=O)CC#N)C[C@@H]1N(C)c1ncnc2[nH]ccc12 [Tofacitinib] (0.5 nM),95.6
7,COc1ncc(-c2ccc3nccc(-c4ccnnc4)c3c2)cc1NS(=O)(=O)c1ccc(F)cc1F (1 nM),93.5
8,COC(=O)C[C@](O)(CCCC(C)(C)O)C(=O)O[C@@H]1C(OC)=C[C@]23CCCN2CCc2cc4c(cc2[C@H]13)OCO4 [Omacetaxine] (10 nM),104
9,Cn1cnc2c(F)c(Nc3ccc(Br)cc3F)c(C(=O)NOCCO)cc21 [MEK-162] (1 nM),99.8
10,Cn1c(=O)c(F)c(Nc2ccc(I)cc2F)c2c(=O)n(C[C@@H](O)CO)cnc21 [TAK-733] (1 nM),99.2
11,C[C@@H]1C=C2C(=O)O[C@@H]3CC[C@H](C1)[C@]23O [Galiellalactone] (50 nM),98.9
